SMILES strings stand for the structures.

As a reminder, the Ki is the equilibrium dissociation constant of an inhibitor or competing ligand from its target. Read a low Ki as tighter binding.

The assay concerns the target T1, human MR (Homo sapiens, UniProt P08235).
T1 construct: The full length human MR gene is cloned from a human kidney or human brain cDNA library; made in house; host or cells: Sf9 insect cells (baculovirus, pAcHLT transfer vector)
T1 sequence (P08235 1-984): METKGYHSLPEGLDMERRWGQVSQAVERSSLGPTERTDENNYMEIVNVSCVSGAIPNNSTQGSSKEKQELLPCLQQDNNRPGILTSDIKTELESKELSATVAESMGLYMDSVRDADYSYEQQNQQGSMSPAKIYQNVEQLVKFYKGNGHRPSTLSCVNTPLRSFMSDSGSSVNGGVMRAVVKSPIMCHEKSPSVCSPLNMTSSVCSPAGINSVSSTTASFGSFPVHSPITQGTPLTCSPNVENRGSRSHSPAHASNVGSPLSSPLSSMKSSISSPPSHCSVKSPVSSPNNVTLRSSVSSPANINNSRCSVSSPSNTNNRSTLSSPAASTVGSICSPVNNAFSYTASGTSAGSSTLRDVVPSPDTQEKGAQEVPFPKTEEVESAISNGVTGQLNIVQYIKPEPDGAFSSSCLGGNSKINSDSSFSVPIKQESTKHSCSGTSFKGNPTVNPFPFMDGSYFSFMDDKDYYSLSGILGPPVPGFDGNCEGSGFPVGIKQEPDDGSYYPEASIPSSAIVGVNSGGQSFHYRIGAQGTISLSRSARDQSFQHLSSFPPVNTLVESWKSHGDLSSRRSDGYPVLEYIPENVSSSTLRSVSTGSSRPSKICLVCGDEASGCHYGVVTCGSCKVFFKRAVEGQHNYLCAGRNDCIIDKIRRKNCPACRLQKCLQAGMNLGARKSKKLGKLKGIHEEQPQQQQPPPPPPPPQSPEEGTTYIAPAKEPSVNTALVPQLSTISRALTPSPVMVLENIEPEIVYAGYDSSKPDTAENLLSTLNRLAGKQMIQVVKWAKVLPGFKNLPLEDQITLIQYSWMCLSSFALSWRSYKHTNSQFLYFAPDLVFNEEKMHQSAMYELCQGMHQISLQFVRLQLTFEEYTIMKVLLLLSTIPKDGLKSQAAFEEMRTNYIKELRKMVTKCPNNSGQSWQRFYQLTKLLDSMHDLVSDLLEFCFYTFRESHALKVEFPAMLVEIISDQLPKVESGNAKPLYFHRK
The assay can be described thus: Mineralocorticoid Receptor Binding Assay ([3H]-aldosterone displacement). To be noted: full length human MR expressed in Sf9 cells, 0.5 nM [3H]-aldosterone. The protocol:
Mineralocorticoid Receptor Binding Assay:
The full length human MR gene is cloned from a human kidney or human brain cDNA library. Briefly, using synthetic oligonucleotide primers (Eli Lilly and Company, Indianapolis) directed to nucleotides 20-54 and 3700-3666 of the human MR, polymerase chain reaction (PCR) is performed under standard conditions using a human cDNA library. The PCR reaction is performed in a final volume of 50 μl containing about 1 μl of a 50× stock solution of polymerase; about 1 μl of a 50× stock solution of dNTP; about 5 μl of an appropriate PCR buffer; about 1 μl of each primer; about 5 μl of a H. kidney or H. brain cDNA library; and about 36 μl of water. The reaction is allowed to denature for about 30 seconds at 95 degrees Celsius, anneal for about 30 seconds at 55 degrees Celsius, and extend for about 5 minutes at 72 degrees Celsius, the sequence being repeated for a total of about 35 cycles. The desired PCR product (3.68 Kb) is confirmed by gel electrophoresis and subsequently cut from the gel and stored at about −20 degrees Celsius until extraction. To extract the cDNA product from the agarose gel, the QIAEX II Gel Extraction protocol (QIAGEN, Inc.) is employed according to the manufacturer's instructions. Following extraction, the MR cDNA is cloned into an appropriate cloning vector (Zero Blunt TOPO PCR Cloning Kit (Invitrogen, Inc.) and a pAcHLT-baculovirus transfer vector (B.D./Pharminogen), then expressed in SF9 insect cells, essentially according to manufacturer's instructions. Sf9 cells are grown at a scale where gram quantity cell pellets are obtained for subsequent use in the MR binding assay. Harvested cell pellets are lysed by repeated freeze-thaw cycles (about 4) in a suitable lysis buffer then centrifuged at about 1×10^3 G (with the supernatant being saved for future assays).
MR binding assays are performed in a final total volume of about 250 μl containing about 20-25 μg of protein and 0.5 nM of [^3H]-aldosterone plus varying concentrations of test compound or vehicle. The assay binding buffer consists of 30 mM sodium molybdate, 30 mM of TRIS-HCl, 5 mM sodium phosphate, 5 mM sodium pyrophosphate, and about 10% glycerol, pH=7.5.
Briefly, assays are prepared at RT in 96-well Falcon 3072 plates, each well containing 210 μl of binding buffer, 10 μl of [^3H]-aldosterone, 10 μl of test compound/vehicle, and 20 μl of the resuspended receptor protein extract. Incubations are carried out at 4 degrees Celsius with shaking for about 16 hours. 200 μl aliquots of each incubation are filtered onto Millipore HA 0.45 micron 96-well filter plates, pre-moistened with cold 30 mM TRIS-HCl. The filter plates are suctioned dry with vacuum and immediately washed 3× with cold 30 mM TRIS-HCl. The plates are then punched out and the amount of receptor-ligand complex is determined by liquid scintillation counting using 4 ml of Ready Protein Plus™ liquid scintillation cocktail.
IC50 values (defined as the concentration of test compound required to decrease [^3H]-aldosterone binding by 50%) are then determined. Ki values for each respective test compound can then be calculated by application of the Cheng-Prusoff equation as described in Cheng et al., Relationship Between The Inhibition Constant (Ki) and The Concentration of Inhibitor Which Causes 50% Inhibition (IC50) of an Enzymatic Reaction, Biochem. Pharmacol., 22: 3099-31088; (1973).
Turning to `Cc1cc(C2(c3cc(C)c(O)c(C)c3)C(=O)N(Cc3noc(C4CCC4)n3)c3ccccc32)cc(C)c1O` [Example 86, 1-(5-Cyclobutyl-[1,2,4]oxadiazol-3-ylmethyl)-3,3-bis-(4-hydroxy-3,5-dimethyl-phenyl)-1,3-dihydro-indol-2-one], the Ki was not above 500 nM. The result for `Cc1cc(C2(c3cc(C)c(O)c(C)c3)C(=O)N(Cc3ccc(C(F)(F)F)cc3C(F)(F)F)c3ccccc32)cc(C)c1O` [Example 68, 1-(2,4-Bis-trifluoromethyl-benzyl)-3,3-bis-(4-hydroxy-3,5-dimethyl-phenyl)-1,3-dihydro-indol-2-one] reads not above 500 nM; that for `Cc1cc(C2(c3cc(C)c(O)c(C)c3)C(=O)N(Cc3csc(-c4ccccc4)n3)c3ccccc32)cc(C)c1O` [Example 91, 3,3-Bis-(4-hydroxy-3,5-dimethyl-phenyl)-1-(2-phenyl-thiazol-4-ylmethyl)-1,3-dihydro-indol-2-one], not above 500 nM. As for `CCCN1C(=O)C(c2cc(C)c(O)c(C)c2)(c2cc(C)c(O)c(C)c2)c2ccccc21` [Example 5, 3,3-Bis-(4-hydroxy-3,5-dimethyl-phenyl)-1-propyl-1,3-dihydro-indol-2-one], the figure is not above 500 nM; as for `Cc1cc(C2(c3cc(C)c(O)c(C)c3)C(=O)N(Cc3ccc(Br)cc3)c3ccccc32)cc(C)c1O` [Example 58, 1-(4-Bromo-benzyl)-3,3-bis-(4-hydroxy-3,5-dimethyl-phenyl)-1,3-dihydro-indol-2-one], not above 500 nM; as for `Cc1cc(C2(c3cc(C)c(O)c(C)c3)C(=O)N(C)c3ccccc32)cc(C)c1O` [Example 4, 3,3-Bis-(4-hydroxy-3,5-dimethyl-phenyl)-1-methyl-1,3-dihydro-indol-2-one], not above 1000 nM. For `Cc1cc(C2(c3cc(C)c(O)c(C)c3)C(=O)N(Cc3ccccc3Cl)c3cccc(Cl)c32)cc(C)c1O` [Example 26, 4-Chloro-1-(2-chloro-benzyl)-3,3-bis-(4-hydroxy-3,5-dimethyl-phenyl)-1,3-dihydro-indol-2-one], the Ki was not above 500 nM. As for `Cc1ccc2c(c1)C(c1cc(C)c(O)c(C)c1)(c1cc(C)c(O)c(C)c1)C(=O)N2Cc1ccccc1` [Example 17, 1-Benzyl-3,3-bis-(4-hydroxy-3,5-dimethyl-phenyl)-5-methyl-1,3-dihydro-indol-2-one], the figure is not above 500 nM.

On to `Cc1ccc2c(c1)C(c1cc(C)c(O)c(C)c1)(c1cc(C)c(O)c(C)c1)C(=O)N2Cc1ccccc1C` [Example 21, 3,3-Bis-(4-hydroxy-3,5-dimethyl-phenyl)-5-methyl-1-(2-methyl-benzyl)-1,3-dihydro-indol-2-one], for which the Ki is not above 500 nM. The molecule `Cc1ccc2c(c1)C(c1cc(C)c(O)c(C)c1)(c1cc(C)c(O)c(C)c1)C(=O)N2Cc1ccccc1C#N` [Example 23, 2-[3,3-Bis-(4-hydroxy-3,5-dimethyl-phenyl)-5-methyl-2-oxo-2,3-dihydro-indol-1-ylmethyl]-benzonitrile] returned a Ki not above 500 nM. As for `Cc1cc(C2(c3cc(C)c(O)c(C)c3)C(=O)N(Cc3ccccc3C(F)(F)F)c3ccccc32)cc(C)c1O` [Example 53, 3,3-Bis-(4-hydroxy-3,5-dimethyl-phenyl)-1-(2-trifluoromethyl-benzyl)-1,3-dihydro-indol-2-one], the figure is not above 500 nM. As for `Cc1ccc(N2C(=O)C(c3cc(C)c(O)c(C)c3)(c3cc(C)c(O)c(C)c3)c3ccccc32)cc1` [Example 125, 3,3-Bis-(4-hydroxy-3,5-dimethyl-phenyl)-1-p-tolyl-1,3-dihydro-indol-2-one], the figure is not above 500 nM. As for `Cc1cccc(N2C(=O)C(c3cc(C)c(O)c(C)c3)(c3cc(C)c(O)c(C)c3)c3ccccc32)c1` [Example 133, 3,3-Bis-(4-hydroxy-3,5-dimethyl-phenyl)-1-m-tolyl-1,3-dihydro-indol-2-one], the figure is not above 500 nM; as for `Cc1cc(C2(c3cc(C)c(O)c(C)c3)C(=O)N(c3cccc(C(C)C)c3)c3ccccc32)cc(C)c1O` [Example 138, 3,3-Bis-(4-hydroxy-3,5-dimethyl-phenyl)-1-(3-isopropyl-phenyl)-1,3-dihydro-indol-2-one], not above 500 nM; as for `Cc1cc(C2(c3cc(C)c(O)c(C)c3)C(=O)N(c3ccc(C(F)(F)F)cc3)c3ccccc32)cc(C)c1O` [Example 131, 3,3-Bis-(4-hydroxy-3,5-dimethyl-phenyl)-1-(4-trifluoromethyl-phenyl)-1,3-dihydro-indol-2-one], not above 500 nM. Molecule `Cc1cc(C2(c3cc(C)c(O)c(C)c3)C(=O)N(CC#N)c3ccccc32)cc(C)c1O` [Example 78, [3,3-Bis-(4-hydroxy-3,5-dimethyl-phenyl)-2-oxo-2,3-dihydro-indol-1-yl]-acetonitrile] yielded a Ki not above 500 nM. The result for `Cc1cc(C2(c3cc(C)c(O)c(C)c3)C(=O)N(Cc3ccccc3[N+](=O)[O-])c3ccccc32)cc(C)c1O` [Example 65, 3,3-Bis-(4-hydroxy-3,5-dimethyl-phenyl)-1-(2-nitro-benzyl)-1,3-dihydro-indol-2-one] reads not above 500 nM. As for `Cc1cc(C2(c3cc(C)c(O)c(C)c3)C(=O)N(Cc3ccc([N+](=O)[O-])cc3)c3ccccc32)cc(C)c1O` [Example 62, 3,3-Bis-(4-hydroxy-3,5-dimethyl-phenyl)-1-(4-nitro-benzyl)-1,3-dihydro-indol-2-one], the figure is not above 500 nM. The result for `Cc1cc(C2(c3cc(C)c(O)c(C)c3)C(=O)N(Cc3ccncc3)c3ccccc32)cc(C)c1O` [Example 111, 3,3-Bis-(4-hydroxy-3,5-dimethyl-phenyl)-1-pyridin-4-ylmethyl-1,3-dihydro-indol-2-one] reads not above 500 nM; that for `Cc1cc(C2(c3cc(C)c(O)c(C)c3)C(=O)N(Cc3cccc([N+](=O)[O-])c3)c3ccccc32)cc(C)c1O` [Example 85, 3,3-Bis-(4-hydroxy-3,5-dimethyl-phenyl)-1-(3-nitro-benzyl)-1,3-dihydro-indol-2-one], not above 500 nM.

As for `Cc1cc(C2(c3cc(C)c(O)c(C)c3)C(=O)N(CC3CCCCC3)c3ccccc32)cc(C)c1O` [Example 6, 1-Cyclohexylmethyl-3,3-bis-(4-hydroxy-3,5-dimethyl-phenyl)-1,3-dihydro-indol-2-one], the Ki is not above 500 nM. As to `Cc1cc(C2(c3cc(C)c(O)c(C)c3)C(=O)N(Cc3ccccc3Cl)c3c(C)cccc32)cc(C)c1O` [Example 24, 1-(2-Chloro-benzyl)-3,3-bis-(4-hydroxy-3,5-dimethyl-phenyl)-7-methyl-1,3-dihydro-indol-2-one], the Ki is not above 500 nM.
